These are literature values, as cited in patent US20260206768A1, “COMBINATION OF VARIOUS NITROGEN FIXING BACTERIA WITH VARIOUS BIOLOGICAL PRODUCTS TO ACHIEVE SYNERGISTIC EFFECTS” (Pivot Bio, Inc., priority 2022, published 2026).

Peptide text beside a SMILES is read from it.

For this series the following is noted: for Useful pH range: buffering range.

`O=S(=O)(O)CC(O)CN1CCN(CC(O)CS(=O)(=O)O)CC1` (centres unmarked) [POPSO]: the “pKa at 25° C.” value was 7.8 and the “Useful pH range” value is 7.2-8.5.
Turning to `O=P([O-])([O-])[O-].[K+].[K+].[K+]` [K3PO4], the “Useful pH range” value was 11.5-12.3.
For `OB(O)O` [Boric acid], the “Useful pH range” value is 8.25-10.25.
Turning to `OCCN(CCO)CCO` [TEA], the “Useful pH range” value is on record as 7.3-8.3.
For `O=S(=O)(O)CCCCN1CCN(CCO)CC1` [HEPBS], the “pKa at 25° C.” value is given as 8.3 and the “Useful pH range” value is recorded as 7.6-9.0.
`O=P([O-])([O-])O.[K+].[K+]` [K2HPO4, dipotassium phosphate]: the “Useful pH range” value is reported as 8.7-9.4.
In the case of `CC(=O)O` [Acetic acid, Ethanoic acid], the “Useful pH range” value is listed as 3.8-5.8.
For `NC(=O)CN(CC(=O)O)CC(=O)O` [ADA], the “pKa at 25° C.” value is reported as 6.59 and the “Useful pH range” value was 6.0-7.2.
For the compound `O=S(=O)(O)CC(O)CN(CCO)CCO` (centres unmarked) [DIPSO], the “pKa at 25° C.” value is 7.6 and the “Useful pH range” value is on record as 7.0-8.2.
Regarding `O=S(=O)(O)CCCNC1CCCCC1` [CAPS], the “pKa at 25° C.” value was 10.4 and the “Useful pH range” value is 9.7-11.1.
Turning to `O=C(O)CC(O)(CC(=O)O)C(=O)O` [Citric acid, 2-Hydroxypropane-1,2,3-tricarboxylic acid], the “Useful pH range” value is listed as 2.1-7.4.
As to `CC(C)(CO)NCC(O)CS(=O)(=O)O` (centres unmarked) [AMPSO], the “pKa at 25° C.” value is given as 9 and the “Useful pH range” value was 8.3-9.7.
Take `O=S(=O)(O)CCNC(CO)(CO)CO` [TES, 2-[[1,3-dihydroxy-2-(hydroxymethyl)propan-2-yl]amino]ethanesulfonic acid]: the “Useful pH range” value was 6.8-8.2.
Consider `O=C(O)CNC(CO)(CO)CO` [Tricine, N-[tris(hydroxymethyl)methyl]glycine], for which the “Useful pH range” value is given as 7.4-8.8.
In the case of `O=S(=O)(O)CC(O)CNC1CCCCC1` (centres unmarked) [CAPSO], the “Useful pH range” value is given as 8.9-10.3.
For `O=S(=O)(O)CCCNC(CO)(CO)CO` [TAPS, [tris(hydroxymethyl)methylamino]propanesulfonic acid], the “Useful pH range” value is 7.7-9.1.
Turning to `O=S(=O)(O)CCCCNC1CCCCC1` [CABS], the “pKa at 25° C.” value is 10.7 and the “Useful pH range” value is reported as 10.0-11.4.
On to `CC(N)(CO)CO` [AMPD], for which the “pKa at 25° C.” value is given as 8.8 and the “Useful pH range” value is given as 7.8-9.7.
Consider `NC(=O)CNCCS(=O)(=O)O` [ACES], for which the “pKa at 25° C.” value is listed as 6.78 and the “Useful pH range” value was 6.1-7.5.
As for `O=S(=O)(O)CCCCN1CCOCC1` [MOBS], the “pKa at 25° C.” value is 7.6 and the “Useful pH range” value is recorded as 6.9-8.3.
`O=S(=O)(O)CCNC1CCCCC1` [CHES, N-Cyclohexyl-2-aminoethanesulfonic acid]: the “Useful pH range” value is on record as 8.3-10.3.
For the compound `OCC(CO)(CO)NCCCNC(CO)(CO)CO` [Bis-Tris Propane], the “Useful pH range” value was 6.3-9.5.
As to `O=S(=O)(O)CCN1CCN(CCS(=O)(=O)O)CC1` [PIPES, piperazine-N,N′-bis(2-ethanesulfonic acid)], the “pKa at 25° C.” value is reported as 6.76 and the “Useful pH range” value is 6.1-7.5.
As for `O=S(=O)(O)CCCN1CCN(CCO)CC1` [EPPS], the “pKa at 25° C.” value is listed as 8 and the “Useful pH range” value was 7.3-8.7.
Take `O=S(=O)(O)CCCCNC(CO)(CO)CO` [TABS]: the “pKa at 25° C.” value is 8.9 and the “Useful pH range” value is 8.2-9.6.
For the compound `CC(C)(N)CO` [AMP], the “pKa at 25° C.” value was 9.7 and the “Useful pH range” value is reported as 9.0-10.5.
On to `NCC(=O)NCC(=O)O` [Gly-Gly] (H-Gly-Gly-OH), for which the “Useful pH range” value was 7.5-8.9.
`O=S(=O)(O)CCN(CCO)CCO` [BES]: the “pKa at 25° C.” value is listed as 7.09 and the “Useful pH range” value is on record as 6.4-7.8.
In the case of `O=S(=O)(O)CC(O)CNC(CO)(CO)CO` (centres unmarked) [TAPSO, 3-[N-tris(hydroxymethyl)methylamino]-2-hydroxypropanesulfonic acid], the “Useful pH range” value is on record as 7.0-8.2.
